“Also recorded” adds a separate entry of the source.
How the values were obtained:
[1] = target: T1, KDM4A (Homo sapiens, UniProt O75164); assay: KDM4A formaldehyde dehydrogenase (FDH) assay; assay type: biochemical
T1 sequence (O75164 1-1064): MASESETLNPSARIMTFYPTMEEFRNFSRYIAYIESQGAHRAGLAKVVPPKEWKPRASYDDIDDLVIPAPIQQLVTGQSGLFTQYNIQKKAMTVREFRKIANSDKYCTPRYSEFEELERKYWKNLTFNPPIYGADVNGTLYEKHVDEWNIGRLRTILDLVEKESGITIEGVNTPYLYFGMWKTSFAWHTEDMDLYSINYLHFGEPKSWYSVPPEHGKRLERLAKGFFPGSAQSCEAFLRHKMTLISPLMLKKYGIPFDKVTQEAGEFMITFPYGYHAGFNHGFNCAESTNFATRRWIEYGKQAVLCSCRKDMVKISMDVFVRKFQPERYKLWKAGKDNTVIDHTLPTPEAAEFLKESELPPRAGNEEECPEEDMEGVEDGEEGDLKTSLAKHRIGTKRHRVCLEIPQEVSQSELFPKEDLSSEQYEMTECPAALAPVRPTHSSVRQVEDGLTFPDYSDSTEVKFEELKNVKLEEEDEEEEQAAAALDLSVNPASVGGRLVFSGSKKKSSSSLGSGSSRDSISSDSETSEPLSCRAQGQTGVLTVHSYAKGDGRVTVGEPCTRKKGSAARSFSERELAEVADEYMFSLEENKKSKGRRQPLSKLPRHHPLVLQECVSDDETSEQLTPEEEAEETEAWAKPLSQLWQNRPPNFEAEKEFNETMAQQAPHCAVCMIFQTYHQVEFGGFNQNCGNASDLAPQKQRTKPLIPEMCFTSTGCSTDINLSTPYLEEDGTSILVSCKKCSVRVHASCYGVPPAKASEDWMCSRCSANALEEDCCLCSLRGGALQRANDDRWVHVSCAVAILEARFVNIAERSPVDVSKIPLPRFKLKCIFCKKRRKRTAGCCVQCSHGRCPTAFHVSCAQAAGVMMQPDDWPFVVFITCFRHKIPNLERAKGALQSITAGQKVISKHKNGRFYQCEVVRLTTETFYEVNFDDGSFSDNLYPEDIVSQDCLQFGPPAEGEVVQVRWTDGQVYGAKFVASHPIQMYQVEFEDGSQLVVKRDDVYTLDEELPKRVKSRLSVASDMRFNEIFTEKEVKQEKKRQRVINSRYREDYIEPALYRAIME
Protocol: (§1) reactions were quenched after 4 min. KDM4A inhibition was tested as described previously using a formaldehyde dehydrogenase (FDH) assay.[9] JARID1B and JARID1C inhibition was tested as described previously using reported AlphaScreen-based assays.[10] MINA531-464 and NO66116-641 were cloned into pFB-LIC-Bse, and the N-terminal His-tagged proteins were produced in Sf9 insect cells. The MINA53 peptide substrate Rpl27a […]
(§2) (Gly31 – Pro49 […]) and the NO66 peptide substrate Rpl8
(§3) (Asn205 – Thr224 […]) were synthesized by Peptide Protein
(§4) Research Ltd (Fareham, Hampshire, UK) to >95% purity. IC50 determinations were performed in 384-well polypropylene plates (Greiner Bio One, Cat Number 781096), and compound dispenses were performed using an ECHO 550 acoustic dispenser (Labcyte, Sunnyvale, CA).
(§5) NO66 (diluted to 375 nM in 50 mM MES pH 7.0, 150 mM NaCl) and MINA53 (diluted to 187.5 nM in 50 mM HEPES pH 7.5, 50 mM NaCl) were dispensed (40 µL) into 384-well compound plates using a multidrop combi reagent dispenser (Thermo Scientific, Code 5840300) with a small tube plastic tip dispensing cassette (Thermo Scientific, Code 24073290).
(§6) NO66 and MINA53 were pre-incubated with compound for 15 minutes, and the enzyme reaction initiated by dispensing 10 µL of substrate solution [250 µM (NH4)2Fe(SO4)2, 500 µM sodium ascorbate, 25 µM 2OG, 25 µM peptide] in optimized enzyme buffer. […]

[2] = target: JARID1C (Homo sapiens, UniProt P41229); assay: JARID1C AlphaScreen-based assay; assay type: biochemical
Protocol: as §1, §2, §3, §4, §5, §6

[3] = target: Tpa1p (Saccharomyces cerevisiae, UniProt P40032); assay: Tpa1p inhibition assay (Figure S12); assay type: biochemical; settings: Tpa1p 2 µM (Figure S12)
[4] = target: T2, Ofd1 (Schizosaccharomyces pombe, UniProt Q11120); assay: Ofd1 inhibition assay (Figure S12); assay type: biochemical, yeast; settings: Ofd1 1 µM (Figure S12)
T2 sequence (Q11120 1-515): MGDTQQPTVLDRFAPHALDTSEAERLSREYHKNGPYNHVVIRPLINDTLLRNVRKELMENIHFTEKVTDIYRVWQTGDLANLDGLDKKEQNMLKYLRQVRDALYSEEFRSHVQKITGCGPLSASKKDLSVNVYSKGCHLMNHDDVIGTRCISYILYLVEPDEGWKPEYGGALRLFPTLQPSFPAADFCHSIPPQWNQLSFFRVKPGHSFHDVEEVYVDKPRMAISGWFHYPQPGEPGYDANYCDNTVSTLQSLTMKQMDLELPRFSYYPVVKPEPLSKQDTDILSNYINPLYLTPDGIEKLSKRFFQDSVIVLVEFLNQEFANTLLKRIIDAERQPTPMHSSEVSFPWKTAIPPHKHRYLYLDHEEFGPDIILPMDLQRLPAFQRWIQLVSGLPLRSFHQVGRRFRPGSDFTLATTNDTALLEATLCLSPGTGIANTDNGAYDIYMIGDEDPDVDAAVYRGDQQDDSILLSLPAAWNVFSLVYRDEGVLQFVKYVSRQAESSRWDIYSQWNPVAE

[5] = target: T3, PHD2181-426 (Homo sapiens, UniProt Q9GZT9); assay: wLOGSY NMR binding experiment with PHD2; settings: 400 µM inhibitor, 50 µM PHD2
T3 construct: 181-426 (1 µM) was
T3 sequence (Q9GZT9 181-426 limits assumed): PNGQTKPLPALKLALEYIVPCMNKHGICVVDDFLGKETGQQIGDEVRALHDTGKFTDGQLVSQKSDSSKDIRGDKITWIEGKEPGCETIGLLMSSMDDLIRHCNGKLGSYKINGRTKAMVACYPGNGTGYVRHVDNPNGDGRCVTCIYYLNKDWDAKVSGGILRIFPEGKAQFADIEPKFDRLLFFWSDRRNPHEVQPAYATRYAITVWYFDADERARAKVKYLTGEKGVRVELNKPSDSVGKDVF

Tpa1p, sequence (P40032 whole entry): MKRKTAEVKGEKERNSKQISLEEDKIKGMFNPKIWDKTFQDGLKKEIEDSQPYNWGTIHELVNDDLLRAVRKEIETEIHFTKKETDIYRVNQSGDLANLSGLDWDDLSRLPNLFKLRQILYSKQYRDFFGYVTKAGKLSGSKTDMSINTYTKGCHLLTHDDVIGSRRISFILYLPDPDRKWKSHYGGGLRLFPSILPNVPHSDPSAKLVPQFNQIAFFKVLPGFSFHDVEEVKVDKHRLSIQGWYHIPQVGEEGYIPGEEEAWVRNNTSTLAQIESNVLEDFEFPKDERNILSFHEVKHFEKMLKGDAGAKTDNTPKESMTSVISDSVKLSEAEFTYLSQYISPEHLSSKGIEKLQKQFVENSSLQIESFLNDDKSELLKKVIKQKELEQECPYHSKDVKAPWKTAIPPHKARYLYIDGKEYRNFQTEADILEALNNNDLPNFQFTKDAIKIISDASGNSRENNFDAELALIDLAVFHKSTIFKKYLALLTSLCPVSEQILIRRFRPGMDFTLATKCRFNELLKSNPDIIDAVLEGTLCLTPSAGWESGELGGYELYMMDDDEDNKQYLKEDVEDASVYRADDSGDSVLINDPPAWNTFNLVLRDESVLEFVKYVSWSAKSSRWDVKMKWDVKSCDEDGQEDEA
JARID1C, sequence (P41229 whole entry): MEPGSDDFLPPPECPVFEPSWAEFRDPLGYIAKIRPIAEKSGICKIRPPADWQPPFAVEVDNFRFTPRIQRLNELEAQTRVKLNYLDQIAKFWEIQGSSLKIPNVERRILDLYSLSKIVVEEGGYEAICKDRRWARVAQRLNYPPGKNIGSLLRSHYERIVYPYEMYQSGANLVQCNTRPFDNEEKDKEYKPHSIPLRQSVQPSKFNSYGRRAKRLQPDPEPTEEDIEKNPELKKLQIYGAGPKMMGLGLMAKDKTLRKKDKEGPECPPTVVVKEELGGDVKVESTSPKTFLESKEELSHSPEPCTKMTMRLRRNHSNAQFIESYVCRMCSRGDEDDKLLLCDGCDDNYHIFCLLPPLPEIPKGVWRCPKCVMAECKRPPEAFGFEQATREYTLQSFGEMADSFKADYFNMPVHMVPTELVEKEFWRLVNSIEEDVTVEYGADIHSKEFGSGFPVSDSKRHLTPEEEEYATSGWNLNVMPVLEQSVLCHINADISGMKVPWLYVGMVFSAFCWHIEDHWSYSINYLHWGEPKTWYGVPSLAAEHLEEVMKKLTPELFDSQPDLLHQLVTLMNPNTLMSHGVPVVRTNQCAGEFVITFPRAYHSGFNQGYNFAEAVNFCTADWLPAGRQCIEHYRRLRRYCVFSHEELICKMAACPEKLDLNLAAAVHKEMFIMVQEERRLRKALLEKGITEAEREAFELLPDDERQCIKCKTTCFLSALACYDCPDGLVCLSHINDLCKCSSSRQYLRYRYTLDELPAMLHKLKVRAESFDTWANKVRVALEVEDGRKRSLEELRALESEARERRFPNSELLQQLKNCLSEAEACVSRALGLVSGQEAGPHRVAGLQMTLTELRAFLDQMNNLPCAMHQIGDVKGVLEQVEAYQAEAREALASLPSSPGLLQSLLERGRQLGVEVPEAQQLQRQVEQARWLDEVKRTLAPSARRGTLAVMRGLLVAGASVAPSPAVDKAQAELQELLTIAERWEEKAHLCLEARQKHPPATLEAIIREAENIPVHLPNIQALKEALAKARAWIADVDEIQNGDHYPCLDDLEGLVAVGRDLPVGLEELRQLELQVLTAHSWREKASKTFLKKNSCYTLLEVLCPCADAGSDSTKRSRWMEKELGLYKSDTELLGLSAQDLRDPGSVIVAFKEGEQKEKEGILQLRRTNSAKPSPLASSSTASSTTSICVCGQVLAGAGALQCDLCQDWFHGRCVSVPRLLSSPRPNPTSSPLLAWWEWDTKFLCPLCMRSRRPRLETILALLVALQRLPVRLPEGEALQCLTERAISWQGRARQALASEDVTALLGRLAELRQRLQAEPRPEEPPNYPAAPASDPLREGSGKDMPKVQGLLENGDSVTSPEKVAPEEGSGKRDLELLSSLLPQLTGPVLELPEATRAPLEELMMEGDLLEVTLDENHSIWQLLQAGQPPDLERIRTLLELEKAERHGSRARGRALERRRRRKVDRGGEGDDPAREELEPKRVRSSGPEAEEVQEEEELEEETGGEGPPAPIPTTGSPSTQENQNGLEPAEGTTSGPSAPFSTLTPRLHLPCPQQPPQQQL

Structure (SMILES) | IC50 [1] | IC50 [2] | inhibition of Tpa1p, in words [3] | inhibition of Ofd1, in words [4] | binding to PHD2 by wLOGSY NMR, in words ([5]; listed as CCT3) | binding to PHD2 by wLOGSY NMR, in words ([5]; listed as CCT4)
Cn1c(O)c(C(=O)CCc2ccccc2)c(=O)n(C)c1=O [compound 26] | > 100 µM | > 100 µM | potently inhibit | potently inhibit | weaker; also recorded: only weak binding to PHD2 | –
Cn1c(O)c(C(=O)CCc2cccs2)c(=O)n(C)c1=O [compound 42] | > 100 µM | > 100 µM | potently inhibit | potently inhibit | – | weaker; also recorded: only weak binding to PHD2
